From patent publication US20100138957A1 (priority 2007, published 2010)

System: Xylella fastidiosa
Conditions: in vivo

**Q.** Which PD resistance index does the source give for “MAKWKLFKKIGIGFKKAAHVGKAALTK [B-passerin]” here?
**A.** higher than that of tolerant control plants

**Q.** What about the “resistance to X. fastidiosa conferred in transgenic grape plants” value of the same sequence?
**A.** significantly higher level of resistance
